Assay results reported in publication PMC8228819, “Comparison of a Short Linear Antimicrobial Peptide with Its Disulfide-Cyclized and Cyclotide-Grafted Variants against Clinically Relevant Pathogens” (Microorganisms, 2021).
≈ marks a conversion by molar mass, not a printed value. Where two headings read alike, the source gives them in different places. Marks after values point to notes of the source that are not given here. Bridge positions count the residues as written; N and C are the ends. Square brackets hold non-standard residues; d marks the D form. Ends that are not written are not given here. Peptide text beside a SMILES is read from it. βAla = NCCC(=O)O

Legend:
[1] = tested on: Escherichia coli, ATCC 25922; format: cell-based; conditions: triplicate, modal value
Experimental: (§1) The following strains were used in this study: Escherichia coli, ATCC 25922, Staphylococcus aureus, epidemic methicillin-resistant EMRSA-15, Klebsiella pneumoniae, clinical isolate from St George’s, University of London (SGUL, London, UK), Acinetobacter baumannii, clinical isolate from SGUL, Pseudomonas aeruginosa, PA01 wildtype strain, and Enterococcus faecalis, vancomycin-resistant ATCC 51299.
(§2) The minimal inhibitory concentration (MIC) was determined in a microdilution assay using Mueller–Hinton (MH) or Brain Heart Infusion Broth (BHI) broth following a previously published protocol. Briefly, a twofold serial dilution of the antibiotics and peptides were prepared and added to a bacteria solution, resulting in 2–5 10^5 CFU/mL. The microtiter plates (polypropylene, Corning, Corning, NY, USA) were incubated for 18 h at 37 °C and MICs were taken visually. Based on our experience with proline rich peptides, their low activity in Mueller–Hinton broth, and their strong activity in diluted broth, we decided to also measure the activity of the peptide set in a 1/5 dilution of the broth. MICs in the presence of serum were established using human serum (Zen-Bio, Durham, NC, USA) and heat-inactivated serum (Sigma-Aldrich, St. Louis, MO, USA). A total of 20% (v/v) of each human serum was mixed with bacterial solution and added to predetermined concentrations of antibiotics and peptides, resulting in a final 10% (v/v) concentration of serum and 2–5 × 10^5 bacteria.

[2] = tested on: Klebsiella pneumoniae, clinical isolate from St George's, University of London; format: cell-based
Experimental: as §1, §2

[3] = tested on: Pseudomonas aeruginosa, PA01 wildtype strain; format: cell-based; conditions: triplicate, modal value
Experimental: as §1, §2

[4] = tested on: Enterococcus faecalis, vancomycin-resistant ATCC 51299; format: cell-based
Experimental: as §1, §2

[5] = tested on: Acinetobacter baumannii, clinical isolate from SGUL; format: cell-based; conditions: triplicate, modal value
Experimental: as §1, §2

[6] = tested on: Staphylococcus aureus, epidemic methicillin-resistant EMRSA-15; format: cell-based; conditions: triplicate, modal value
Experimental: as §1, §2

Serum stability assay = format: in vitro ADME, human; conditions: 37 °C, UPLC-MS; for half-life at 100 μM: 100% human serum (Sigma-Aldrich, human male AB plasma), 100 μM peptide, 0-24 h, TFA precipitation, triplicates; for Peptide state after one hour in human serum: 100% human serum, 100 μM, 1 h
Experimental: (§3) Serum stability assays were performed in 100% human serum (Sigma-Aldrich, St. Louis MO, USA, human male AB plasma). Serum was centrifuged to remove lipids and incubated with the peptides at 100 μM for 0, 0.5, 1, 3, 6, and 24 h at 37 °C. Serum proteins were precipitated by adding 3 μL of TFA to 40 μL of peptide – serum sample (final TFA 7%). The remaining supernatant was diluted with 50:50 solvent A/B. The amount of peptide remaining (%) was quantified by UPLC-MS analysis. For pH stability experiments, peptides were incubated at a concentration of 20 μM at pH 1.2 and 7.5 for 24 h, and stability was monitored by UPLC analysis.

pH stability = format: physicochemical; conditions: 20 μM, pH 1.2 and 7.5, 24 h, UPLC
Experimental: as §3

E. coli = conditions: cited from earlier work
Description: (§4) Several naturally occurring cyclotide sequences have been proposed to have antimicrobial activity. However, the cyclotides tested in that study were synthetically made and had rather weak activity against a range of common pathogenic bacteria, including Escherichia coli and Staphylococcus aureus, but were only active in low salt media, losing all activity under physiological conditions. A number of other studies have also reported antibacterial activity for some natural cyclotides or synthetic derivatives of them. For example, fractions comprised of cyclotid ...

Staphylococcus aureus = conditions: cited from earlier work
Description: as §4

[7] = tested on: S. enterica serovar Typhimurium LT2; conditions: cited from earlier work
Description: as §4

[8] = 1/5 MH + 10% heat inactivated human serum

Q: Which MIC [1, 8] does the source give for CC[C@H](C)[C@@H]1NC(=O)[C@H](Cc2c[nH]c3ccccc23)NC(=O)[C@H](CCCNC(=N)N)NC(=O)[C@H](C(C)C)NC(=O)[C@H](CCCNC(=N)N)NC(=O)[C@H](CCCNC(=N)N)NC(=O)[C@H](CCCCN)NC(=O)CCNC(=O)CCNC(=O)[C@@H](N)CSSC[C@@H](C(=O)O)NC(=O)CCNC(=O)CCNC(=O)[C@H](Cc2c[nH]c3ccccc23)NC(=O)[C@H]([C@@H](C)CC)NC1=O [c-optP7] (H-C[βAla][βAla]KRRVRWIIW[βAla][βAla]C-OH; disulfide 1-15) here?
A: Its MIC is 35 µM.

Q: And the MIC ([1]; 1/5 MH + 10% human serum)?
A: The MIC was 18 µM.

Q: What about the MIC ([1]; 1/5 MH) of the same compound?
A: Its MIC is 4 to 9 µM.

Q: And the MIC ([1]; MH + 10% human serum)?
A: Its MIC is >142 µM.

Q: What about the MIC ([1]; MH) of the same compound?
A: Its MIC is 71 µM (≈ 128 µg/mL).

Q: And the MIC ([2]; 1/5 MH + 10% human serum, triplicate, modal value)?
A: Its MIC is 142 µM.

Q: And the MIC ([2]; 1/5 MH, triplicate, modal value)?
A: Its MIC is 71 µM (≈ 128 µg/mL).

Q: And the MIC ([2]; MH, single measurement (asterisk))?
A: Its MIC is >142 * µM.

Q: What about the MIC ([3]; 1/5 MH + 10% human serum) of the same compound?
A: The MIC was 35 µM.

Q: What about the MIC ([3]; 1/5 MH) of the same compound?
A: Its MIC is 9 µM (≈ 16.2 µg/mL).

Q: And the MIC ([3]; MH + 10% human serum)?
A: The MIC was >142 µM.

Q: What about the MIC ([3]; MH, microdilution, 18 h 37 °C, visual) of the same compound?
A: Its MIC is 142 µM (≈ 256 µg/mL).

Q: What about the MIC ([4]; 1/5 BHI + 10% human serum, triplicate, modal value) of the same compound?
A: Its MIC is >142 µM.

Q: What about the MIC ([4]; 1/5 BHI, triplicate, modal value) of the same compound?
A: Its MIC is 18 µM (≈ 32.4 µg/mL).

Q: What about the MIC ([4]; BHI, single measurement (asterisk)) of the same compound?
A: The MIC was >142 * µM.

Q: What about the MIC ([5]; 1/5 MH + 10% human serum) of the same compound?
A: The MIC was 71 µM.

Q: And the MIC ([5]; 1/5 MH)?
A: Its MIC is 4 µM (≈ 7.2 µg/mL).

Q: And the MIC [6, 8]?
A: The MIC was >142 µM.

Q: And the MIC ([6]; 1/5 MH + 10% human serum)?
A: The MIC was >142 µM.

Q: And the MIC ([6]; 1/5 MH)?
A: Its MIC is 18 µM (≈ 32.4 µg/mL).

Q: What about the MIC ([6]; MH + 10% human serum) of the same compound?
A: Its MIC is >142 µM.

Q: And the MIC ([6]; MH)?
A: Its MIC is 142 µM (≈ 256 µg/mL).

Q: And the half-life at 100 μM (Serum stability assay)?
A: Its half-life at 100 μM is 9 min.

Q: What about the “Peptide state after one hour in human serum” value (Serum stability assay) of the same compound?
A: Its value is “fully degraded”.

Q: And the pH stability (pH stability)?
A: The pH stability was “exceptional stability over 24 h”.

Q: Which MIC ([2]; clinical isolate from St George's, University of London, 18 h) does the source give for KRRVRWIIW-NH2 [optP7] here?
A: Its MIC is 1.5 µM.

Q: And the MIC ([4]; ATCC 51299, 18 h)?
A: Its MIC is 0.8 µM.

Q: And the MIC [6, 8]?
A: The MIC was 6 µM.

Q: What about the MIC ([6]; 1/5 MH + 10% human serum) of the same compound?
A: The MIC was 6 µM.

Q: And the MIC ([6]; 1/5 MH)?
A: The MIC was 1.5 µM.

Q: What about the MIC ([6]; MH + 10% human serum) of the same compound?
A: The MIC was 49 µM.

Q: And the MIC ([6]; MH)?
A: The MIC was 6 µM.

Q: What about the half-life at 100 μM (Serum stability assay) of the same compound?
A: The half-life at 100 μM was 13 min.

Q: What about the “Peptide state after one hour in human serum” value (Serum stability assay) of the same compound?
A: The value was “fully degraded”.

Q: What about the pH stability (pH stability) of the same compound?
A: Its pH stability is “exceptional stability over 24 h”.

Q: Which MIC (E. coli) does the source give for cycloviolacin O2 here?
A: The MIC was 2 µM.

Q: What about the MIC (Staphylococcus aureus) of the same compound?
A: Its MIC is > 50 µM.

Q: And the MIC [7]?
A: The MIC was ~9 µM.
